Experimental data taken from US12491184B2 (Veradermics, Incorporated, priority 2022, dated 2025).

Experiments:
[1] = system: patient with androgenetic alopecia; details: 1.25 mg QID
[2] = system: mice; details: dietary, up to 2 years, 63 mg/kg/day; cited from earlier work
[3] = system: dogs; details: short-term administration 0.5 mg to 10 mg/kg/day; cited from earlier work
[4] = 2.5 mg, 5 mg, or 10 mg oral; cited from earlier work
[5] = oral; cited from earlier work
[6] = system: patients; details: cited from earlier work
[7] = system: male adults with AGA; details: cited from earlier work
[8] = system: animal; details: long term animal studies; cited from earlier work

Nc1cc(N2CCCCC2)nc(N)[n+]1[O-] [minoxidil]
unwanted hair growth or other adverse events [1]: No unwanted hair growth or other adverse events, including any cardiac effects | incidence of hepatic nodules in males [2]: increased incidence of hepatic nodules | cardiac findings [3]: various cardiac lesions | differences in systolic and diastolic blood pressure (time effects within treatments) [4]: less than 10% | effect on blood pressure in normotensive subjects [4]: little effect on blood pressure | absorbed from the gastrointestinal tract [5]: > 90% | emergence of hypertrichosis signs after starting treatment ([6]; human, in vivo): 3-6 weeks | spontaneous reversal of hypertrichosis after cessation of therapy ([6]; human, in vivo): 1-6 months | occurrence of hypertrichosis ([6]; treated patients): most patients | adverse cardiovascular outcomes ([7]; 5 mg oral at bedtime, 24 weeks): No adverse cardiovascular outcomes | change in mean heart rate ([7]; 5 mg oral at bedtime, 24 weeks): no overall change in mean heart rate | laboratory variables before versus after treatment ([7]; 5 mg oral at bedtime, 24 weeks): no differences | subjects developing tachycardia ([7]; at the follow-up visit): 1 subject | cardiac findings [8]: cardiac hypertrophy, cardiac dilation, and serosanguineous pericardial fluid
